Test results as given in patent US7915297B2, “Isoxazole derivatives and use thereof” (SK Holdings Co., Ltd., priority 2005, dated 2011).

Key:
[1] = tested on: ST-2, a murine bone marrow stromal T cell; assay: Differentiation of ST2 cell line into osteoblasts, alkaline phosphatase activity; format: cell-based; details: Mus musculus, 96 h; ST-2 cells, 11 μM compound, 4 days; control treated only with ascorbic acid and β-glycerolphosphate = 100; read-out: ALP Activity (% Control)
Procedure, shortened: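 Murine ST-2 stromal cells in MEM with 5% FBS were treated with compounds (11 μM, 4 days) in medium with 50 μg/ml ascorbic acid and 5 mM β-glycerolphosphate. ALP activity read by luminescence kit, expressed as % of ascorbate/β-glycerolphosphate-only control.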

[2] = tested on: Wnt/β-catenin signaling (β-catenin activity) in HEK293 cell line; assay: Cell-based Wnt agonist screening, TCF luciferase reporter, HEK293 (TCF-FL); design: species or system human; details: Homo sapiens, HEK293, 24 h, % of LiCl (20 mM), 24 h, read-out: Max. Activity (%); for Emax at 30 µM: Conc. 30 μM; for Emax at 120 µM: Conc. 120 μM; for Emax at 60 µM: Conc. 60 μM; for Emax at 10 µM: Conc. 10 μM
Procedure, shortened: (§1)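 HEK293 and SW480 lines stably carried a 5X TCF firefly luciferase reporter under G418 selection. Cells (8,000–15,000/well, RPMI 1640 with 5% FBS) were grown 24 h, then treated with compound for 24 h. Luciferase activity was expressed as percent of the 20 mM LiCl positive control.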

[3] = tested on: Wnt/β-catenin signaling (β-catenin activity) in SW480 cell line; assay: Cell-based Wnt agonist screening, TCF luciferase reporter, SW480 (TCF-FL); design: species or system human; details: Homo sapiens, % of LiCl (20 mM), 24 h, read-out: Max. Activity (%); for Emax at 30 µM: Con. 30 μM; for Emax at 120 µM: Con. 120 μM; for Emax at 10 µM: Con. 10 μM
Procedure, shortened: as §1

ovariectomized ICR mice = assay: In vivo osteoporosis assay in ovariectomized ICR mice (DEXA, micro-CT of spine L3-L6); details: for BMD (g/cm^2) Avg. ± SD / BMD Change (%) / Trabeculae volume Change (%) / Trabeculae volume(mm^2) Avg. ± SD: four weeks; for BMD (g/cm^2) Avg. ± SD: spine L3-L6, DEXA; for BMD Change (%) / Trabeculae volume Change (%): Sham = 0.0
Procedure: Experimental animals were female ICR mice having body weights of 24-28 g which were about 7 weeks old. In each cage, measuring 40×25×17 cm, 2-3 mice were reared at 22° C., RH 50%.
Ovariectomy is known as one of the most widely used techniques for inducing osteoporosis. As in postmenopause case, the ovariectomy-operation induce estrogen insufficient, result in decrease of osteogenesis and increase of bone resorption, lead to osteoporosis. Anaesthetized 7-week-old female ICR mice underwent ovariectomies and, immediately after the removal of both ovaries, they were administered with test compounds to determine the preventive and therapeutic effects thereof on osteoporosis.
1) Preparation of test material: Predetermined amounts of Derivative (1) were suspended in 0.5% CMC to prepare test materials to be administered. As for the control drug alendronate, 0.17% citric acid was added thereto as a pharmacopoeia to aid in the uptake of the drug.
2) Administration period: four weeks
3) Administration route and method: test materials were administered in a volume of 10 ml/kg of body weight, measured on the administration day, into seven groups: (1) intact control (ICR mice bred with typical diet, control); (2) ovariectomy control (the abdomen opened and closed without removal of the ovary, Sham); (3) ovariectomy group (ovaries removed, OVX); (4) alendronate-treated group (a dose of 5 mg/kg/day); (5) Derivative (1) 30 mg/kg/day treated group (OVX+Derivative (1) 30 mpk); (6) Derivative (1) 90 mg/kg/day treated group (OVX+Derivative (1) 90 mpk); and (7) Derivative (1) […] treated group (OVX+Derivative (1) 30 mpkW). Groups (1)˜(6) were orally treated five day a week for four weeks while group (7) was treated once a week for four weeks.
After administration for four weeks, the spine (L3-L6) was analyzed for bone mineral density (BMD) through dual-energy X-ray absorptiometry (DEXA) using a Lunar Pixi #5 instrument. Micro-computed tomography (Micro-CT) was performed to determine the effects of the test materials on bone mass and bone strength and on the tertiary bone mass of the spine (L3-L6).

[4] = Group 5 (OVX + D30): 30 mg/kg/day, oral
[5] = Group 6 (OVX + D90): 90 mg/kg/day, oral
[6] = Group 7 (OVX + W30): 90 mg/kg/week (30 mpkW), once a week
[7] = Group 4 (OVX + AD): alendronate 5 mg/kg/day, oral

## O=C(NCCn1cccn1)c1cc(-c2ccc(F)cc2)on1 [Derivative (87), 5-(4-fluoro-phenyl)-isoxazole-3-carboxylic acid (2-pyrazol-1-yl-ethyl)-amide]
[1]
  activity at 11 µM: 428%
[2]
  Emax at 30 µM: < 20%
[3]
  Emax at 30 µM: < 20%

## O=C(NCCCn1cncn1)c1cc(-c2ccc(Cl)cc2)on1 [Derivative (96), 5-(4-chloro-phenyl)-isoxazole-3-carboxylic acid (3-[1,2,4]triazol-1-yl-propyl)-amide]
[1]
  activity at 11 µM: 97%
[2]
  Emax at 120 µM: 80%
[3]
  Emax at 120 µM: 80%

## COc1ccc(CCNC(=O)c2cc(-c3ccco3)on2)cc1 [Derivative (21), 5-furan-2-yl-isoxazole-3-carboxylic acid [2-(4-methoxy-phenyl)-ethyl]-amide]
[1]
  activity at 11 µM: 334%
[2]
  Emax at 30 µM: 23%
[3]
  Emax at 30 µM: 287%

## COc1ccc(-c2cc(C(=O)NCCc3ccncc3)no2)cc1 [Derivative (102), 5-(4-methoxy-phenyl)-isoxazole-3-carboxylic acid (2-pyridin-4-yl-ethyl)-amide]
[1]
  activity at 11 µM: 148%
[2]
  Emax at 120 µM: 73%
[3]
  Emax at 120 µM: 73%

## COc1ccccc1-c1cc(C(=O)NCCc2ccncc2)no1 [Derivative (104), 5-(2-methoxy-phenyl)-isoxazole-3-carboxylic acid (2-pyridin-4-yl-ethyl)-amide]
[1]
  activity at 11 µM: 103%
[2]
  Emax at 30 µM: 35%
  Emax at 60 µM: 884%
[3]; Con. 60 μM
  Emax at 60 µM: 884%

## O=C(NCCn1ccnc1)c1cc(-c2ccccc2F)on1 [Derivative (85), 5-(2-fluoro-phenyl)-isoxazole-3-carboxylic acid (2-imidazol-1-yl-ethyl)-amide]
[1]
  activity at 11 µM: 640%
[2]
  Emax at 30 µM: < 20%
[3]
  Emax at 30 µM: < 20%

## O=C(NCCn1cncn1)c1cc(-c2ccc(Cl)cc2)on1 [Derivative (97), 5-(4-chloro-phenyl)-isoxazole-3-carboxylic acid (2-[1,2,4]triazol-1-yl-ethyl)-amide]
[1]
  activity at 11 µM: 91%
[2]
  Emax at 10 µM: 53%
[3]
  Emax at 10 µM: 53%

## O=C(NCCCn1ccnc1)c1cc(-c2ccc([N+](=O)[O-])cc2)on1 [Derivative (114), 5-(4-nitro-phenyl)-isoxazole-3-carboxylic acid (3-imidazol-1-yl-propyl)-amide]
[1]
  activity at 11 µM: 339%
[2]; Conc. 1 μM
  Emax at 1 µM: 31%
[3]; Con. 1 μM
  Emax at 1 µM: 31%

## Cc1ccc(CCNC(=O)c2cc(-c3ccco3)on2)cc1 [Derivative (15), 5-furan-2-yl-isoxazole-3-carboxylic acid (2-p-tolyl-ethyl)-amide]
[1]
  activity at 11 µM: 278%
[2]
  Emax at 30 µM: < 20%
[3]
  Emax at 30 µM: < 20%

## O=C(NCCn1ccnc1)c1cc(-c2ccc(F)cc2)on1 [Derivative (86), 5-(4-fluoro-phenyl)-isoxazole-3-carboxylic acid (2-imidazol-1-yl-ethyl)-amide]
[1]
  activity at 11 µM: 546%
[2]
  Emax at 30 µM: < 20%
[3]
  Emax at 30 µM: < 20%

## O=C(NCCCn1ccnc1)c1cc(-c2ccco2)on1 [Derivative (1), 5-furan-2-yl-isoxazole-3-carboxylic acid (3-imidazol-1-yl-propyl)-amide]
Ovariectomized ICR mice; Group 5 (OVX + D30): 30 mg/kg/day, oral, five day a week
  BMD (g/cm^2) Avg. ± SD: 0.061 ± 0.007 g/cm^2
Ovariectomized ICR mice; [4]
  BMD Change (%): −11.6%
  Trabeculae volume Change (%): 4.8%
Ovariectomized ICR mice; Group 5 (OVX + D30): 30 mg/kg/day, oral, spine L3-L6, micro-CT
  Trabeculae volume(mm^2) Avg. ± SD: 21.7 ± 2.43 mm^2
Ovariectomized ICR mice; Group 6 (OVX + D90): 90 mg/kg/day, oral, five day a week
  BMD (g/cm^2) Avg. ± SD: 0.063 ± 0.005 g/cm^2
Ovariectomized ICR mice; [5]
  BMD Change (%): −8.7%
  Trabeculae volume Change (%): 44.4%
Ovariectomized ICR mice; Group 6 (OVX + D90): 90 mg/kg/day, oral, spine L3-L6, micro-CT
  Trabeculae volume(mm^2) Avg. ± SD: 29.9 ± 0.83 mm^2
Ovariectomized ICR mice; [6]
  BMD Change (%): −15.9%
  Trabeculae volume Change (%): 26.1%
  BMD (g/cm^2) Avg. ± SD: 0.058 ± 0.006 g/cm^2
Ovariectomized ICR mice; Group 7 (OVX + W30): 90 mg/kg/week (30 mpkW), once a week, micro-CT
  Trabeculae volume(mm^2) Avg. ± SD: 26.1 ± 1.87 mm^2
Ovariectomized ICR mice; OVX mice, four weeks administration
  therapeutic effect on bone mass compared with alendronate: exceed that of alendronate
Ovariectomized ICR mice; OVX mice, four weeks administration, DEXA
  effect on bone mineral density (BMD) versus OVX group: decrease in bone mineral density to lesser extents compared to the OVX group
Ovariectomized ICR mice; OVX mice, four weeks administration, micro-CT
  effect on bone mass (BV/TV): restrain the decrease of bone mass, but also to increase the bone density to a higher level than before ovariectomy
[2]
  Emax at 60 µM: 70%
[3]
  Emax at 120 µM: 957%

## COc1cccc(-c2cc(C(=O)NCCc3ccncc3)no2)c1 [Derivative (103), 5-(3-methoxy-phenyl)-isoxazole-3-carboxylic acid (2-pyridin-4-yl-ethyl)-amide]
[1]
  activity at 11 µM: 103%
[2]
  Emax at 10 µM: 42%
[3]
  Emax at 10 µM: 42%

## NCCCC(O)(P(=O)(O)O)P(=O)(O)O [Alendronate, alendronate, reference compound]
Ovariectomized ICR mice; Group 4 (OVX + AD): alendronate 5 mg/kg/day, oral, five day a week
  BMD (g/cm^2) Avg. ± SD: 0.066 ± 0.012 g/cm^2
Ovariectomized ICR mice; [7]
  BMD Change (%): −4.3%
  Trabeculae volume Change (%): −25.1%
Ovariectomized ICR mice; Group 4 (OVX + AD): alendronate 5 mg/kg/day, oral, spine L3-L6, micro-CT
  Trabeculae volume(mm^2) Avg. ± SD: 15.5 ± 3.27 mm^2
